This passage reports IC50 results from patent US10442803B2, “Tricyclic heterocycles as bet protein inhibitors” (Incyte Corporation, priority 2013, dated 2019).

Each structure is given as a SMILES string. Structures can show the parent of a compound that is named as a salt. Where only a bound is given, the exact number is not on record here.

One assay has as its system KMS.12.BM cells. Briefly: KMS.12.BM cell viability assay. In kind it is cell-based. The settings on record: 72 h; KMS.12.BM human myeloma cells, 3 days, Cell Titer-GLO ATP quantitation; read-out: KMS cellular IC50. The method in brief:
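Human myeloma KMS.12.BM cells, 5000 per well in RPMI/10% FBS, exposed 3 days to compound concentration range. Viability from ATP-based Cell Titer-GLO luminescence; IC50 derived.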
(In ATP-based viability assays light output follows the ATP content of the culture.)
The IC50 is the point on the concentration scale where inhibition reaches its midpoint. `Cc1nnc2ccc3c(cc(-c4ccn(CCCO)n4)n3Cc3cccc(Cl)c3)n12` [Example 173, 3-{3-[6-(3-Chlorobenzyl)-1-methyl-6H-pyrrolo[2,3-e][1,2,4]triazolo[4,3-a]pyridin-7-yl]-1H-pyrazol-1-yl}propan-1-ol trifluoroacetate salt]: the IC50 was at most 1000 nM.

On to `CNC(=O)CCn1ccc(-c2cc3c(ccc4nnc(C)n43)n2Cc2cccc(Cl)c2)n1` [Example 174, 3-{3-[6-(3-Chlorobenzyl)-1-methyl-6H-pyrrolo[2,3-e][1,2,4]triazolo[4,3-a]pyridin-7-yl]-1H-pyrazol-1-yl}-N-methylpropanamide trifluoroacetate salt], for which the IC50 is at most 1000 nM.

For the compound `CCNC(=O)CCn1ccc(-c2cc3c(ccc4nnc(C)n43)n2Cc2cccc(Cl)c2)n1` [Example 175, 3-{3-[6-(3-Chlorobenzyl)-1-methyl-6H-pyrrolo[2,3-e][1,2,4]triazolo[4,3-a]pyridin-7-yl]-1H-pyrazol-1-yl}-N-ethylpropanamide trifluoroacetate salt], the IC50 was at most 1000 nM.

As for `Cc1nnc2ccc3c(cc(-c4ccn(CCC(=O)NC(C)(C)C)n4)n3Cc3cccc(Cl)c3)n12` [Example 176, N-(tert-Butyl)-3-{3-[6-(3-chlorobenzyl)-1-methyl-6H-pyrrolo[2,3-e][1,2,4]triazolo[4,3-a]pyridin-7-yl]-1H-pyrazol-1-yl}propanamide trifluoroacetate salt], the half-inhibitory concentration (IC50) was at most 1000 nM.

Consider `Cc1nnc2ccc3c(cc(-c4ccn(C5COC5)n4)n3Cc3cccc(Cl)c3)n12` [Example 177, 6-(3-Chlorobenzyl)-1-methyl-7-(1-oxetan-3-yl-1H-pyrazol-3-yl)-6H-pyrrolo[2,3-e][1,2,4]triazolo[4,3-a]pyridine trifluoroacetate salt], for which the IC50 was at most 1000 nM.

Consider `Cc1nnc2ccc3c(cc(-c4ccn(CCO)n4)n3Cc3cccc(Cl)c3)n12` [Example 178, 2-{3-[6-(3-Chlorobenzyl)-1-methyl-6H-pyrrolo[2,3-e][1,2,4]triazolo[4,3-a]pyridin-7-yl]-1H-pyrazol-1-yl}ethanol trifluoroacetate salt], for which the IC50 was at most 1000 nM.

For the compound `Cc1nnc2ccc3c(cc(-c4ccn(C5CN(CCO)C5)n4)n3Cc3cccc(Cl)c3)n12` [Example 179, 2-(3-{3-[6-(3-Chlorobenzyl)-1-methyl-6H-pyrrolo[2,3-e][1,2,4]triazolo[4,3-a]pyridin-7-yl]-1H-pyrazol-1-yl}azetidin-1-yl)ethanol bis(trifluoroacetate) salt], the IC50 was at most 1000 nM.

With `Cc1nnc2ccc3c(cc(-c4ccn(C5CN(C)C5)n4)n3Cc3cccc(Cl)c3)n12` [Example 180, 6-(3-Chlorobenzyl)-1-methyl-7-[1-(1-methylazetidin-3-yl)-1H-pyrazol-3-yl]-6H-pyrrolo[2,3-e][1,2,4]triazolo[4,3-a]pyridine bis(trifluoroacetate) salt], the IC50 is at most 1000 nM.

Turning to `Cc1nnc2ccc3c(cc(-c4ccn(C5CN(CCC#N)C5)n4)n3Cc3cccc(Cl)c3)n12` [Example 181, 3-(3-{3-[6-(3-Chlorobenzyl)-1-methyl-6H-pyrrolo[2,3-e][1,2,4]triazolo[4,3-a]pyridin-7-yl]-1H-pyrazol-1-yl}azetidin-1-yl)propanenitrile bis(trifluoroacetate) salt], the IC50 is at most 1000 nM.

For `Cc1nnc2ccc3c(cc(-c4ccn(CCC#N)n4)n3Cc3cccc(CN4CCC4)c3)n12` [Example 183, 3-(3-{6-[3-(Azetidin-1-ylmethyl)benzyl]-1-methyl-6H-pyrrolo[2,3-e][1,2,4]triazolo[4,3-a]pyridin-7-yl}-1H-pyrazol-1-yl)propanenitrile bis(trifluoroacetate) salt], the IC50 was at most 1000 nM.

On to `Cc1nnc2ccc3c(cc(-c4ccn(C)n4)n3Cc3cccc(CN4CCC4)c3)n12` [Example 184, 6-[3-(Azetidin-1-ylmethyl)benzyl]-1-methyl-7-(1-methyl-1H-pyrazol-3-yl)-6H-pyrrolo[2,3-e][1,2,4]triazolo[4,3-a]pyridine bis(trifluoroacetate) salt], for which the IC50 is at most 1000 nM.

`Cc1nnc2ccc3c(cc(-c4ccn(C)n4)n3Cc3cc(Cl)cc(CN4CCC4)c3)n12` [Example 185, 6-[3-(Azetidin-1-ylmethyl)-5-chlorobenzyl]-1-methyl-7-(1-methyl-1H-pyrazol-3-yl)-6H-pyrrolo[2,3-e][1,2,4]triazolo[4,3-a]pyridine tris(trifluoroacetate) salt]: the IC50 was at most 1000 nM.

For `CCn1ccc(-c2cc3c(ccc4nnc(C)n43)n2Cc2cc(Cl)cc(CN3CCC3)c2)n1` [Example 188, 6-(3-(Azetidin-1-ylmethyl)-5-chlorobenzyl)-7-(1-ethyl-1H-pyrazol-3-yl)-1-methyl-6H-pyrrolo[2,3-e][1,2,4]triazolo[4,3-a]pyridine tris(trifluoroacetate) salt], the IC50 was at most 1000 nM.

As to `CCn1ccc(-c2cc3c(ccc4nnc(C)n43)n2Cc2cc(Cl)cc(CN3CCCC3)c2)n1` [Example 189, 6-(3-Chloro-5-(pyrrolidin-1-ylmethyl)benzyl)-7-(1-ethyl-1H-pyrazol-3-yl)-1-methyl-6H-pyrrolo[2,3-e][1,2,4]triazolo[4,3-a]pyridine tris(trifluoroacetate) salt], the IC50 is at most 1000 nM.

For the compound `Cc1nnc2ccc3c(cc(-c4ccn(C)n4)n3Cc3cc(Cl)cc(CN4CCCC4)c3)n12` [Example 190, 6-[3-Chloro-5-(pyrrolidin-1-ylmethyl)benzyl]-1-methyl-7-(1-methyl-1H-pyrazol-3-yl)-6H-pyrrolo[2,3-e][1,2,4]triazolo[4,3-a]pyridine bis(trifluoroacetate) salt], the IC50 was at most 1000 nM.

With `Cc1nnc2ccc3c(cc(-c4ccn(C)n4)n3Cc3cc(Cl)cc(CN(C)C)c3)n12` [Example 191, 1-(3-Chloro-5-{[1-methyl-7-(1-methyl-1H-pyrazol-3-yl)-6H-pyrrolo[2,3-e][1,2,4]triazolo[4,3-a]pyridin-6-yl]methyl}phenyl)-N,N-dimethylmethanamine bis(trifluoroacetate) salt], the IC50 was at most 1000 nM.

For the compound `Cc1nnc2ccc3c(cc(-c4ccn(C)n4)n3Cc3cc(Cl)cc(CN4CCOCC4)c3)n12` [Example 192, 6-[3-Chloro-5-(morpholin-4-ylmethyl)benzyl]-1-methyl-7-(1-methyl-1H-pyrazol-3-yl)-6H-pyrrolo[2,3-e][1,2,4]triazolo[4,3-a]pyridine bis(trifluoroacetate) salt], the IC50 is at most 1000 nM.

For `Cc1nnc2ccc3c(cc(C4=NCCO4)n3Cc3cccc(Cl)c3)n12` [Example 193, 6-(3-Chlorobenzyl)-7-(4,5-dihydro-1,3-oxazol-2-yl)-1-methyl-6H-pyrrolo[2,3-e][1,2,4]triazolo[4,3-a]pyridine], the IC50 is at most 1000 nM.

As to `Cc1nnc2ccc3c(cc(-c4ncco4)n3Cc3cccc(Cl)c3)n12` [Example 194, 6-(3-Chlorobenzyl)-1-methyl-7-(1,3-oxazol-2-yl)-6H-pyrrolo[2,3-e][1,2,4]triazolo[4,3-a]pyridine trifluoroacetate salt], the IC50 was at most 1000 nM.

For `Cc1nnc2ccc3c(cc(-c4ncco4)n3Cc3cc(Cl)cc(CN4CCC4)c3)n12` [Example 195, 6-[3-(Azetidin-1-ylmethyl)-5-chlorobenzyl]-1-methyl-7-(1,3-oxazol-2-yl)-6H-pyrrolo[2,3-e][1,2,4]triazolo[4,3-a]pyridine bis(trifluoroacetate) salt], the IC50 was at most 1000 nM.

As to `Cc1nnc2ccc3c(cc(-c4ncco4)n3Cc3cc(Cl)cc(CN4CC(C)(C)C4)c3)n12` [Example 196, 6-{3-Chloro-5-[(3,3-dimethylazetidin-1-yl)methyl]benzyl}-1-methyl-7-(1,3-oxazol-2-yl)-6H-pyrrolo[2,3-e][1,2,4]triazolo[4,3-a]pyridine bis(trifluoroacetate) salt], the IC50 was at most 1000 nM.

Consider `Cc1nnc2ccc3c(cc(-c4ncco4)n3Cc3cc(Cl)cc(CN4CCCC4)c3)n12` [Example 197, 6-[3-Chloro-5-(pyrrolidin-1-ylmethyl)benzyl]-1-methyl-7-(1,3-oxazol-2-yl)-6H-pyrrolo[2,3-e][1,2,4]triazolo[4,3-a]pyridine bis(trifluoroacetate) salt], for which the IC50 is at most 1000 nM.

For the compound `Cc1nnc2ccc3c(cc(-c4ncco4)n3Cc3cc(Cl)cc(CN4CC(O)C4)c3)n12` [Example 198, 1-(3-Chloro-5-{[1-methyl-7-(1,3-oxazol-2-yl)-6H-pyrrolo[2,3-e][1,2,4]triazolo[4,3-a]pyridin-6-yl]methyl}benzyl)azetidin-3-ol bis(trifluoroacetate) salt], the 50% inhibitory concentration (IC50) was at most 1000 nM.

`Cc1cc2c(cc(Nc3cc[nH]n3)c3nnc(C)n32)n1Cc1ccccc1` [Example 200, 6-Benzyl-1,7-dimethyl-N-1H-pyrazol-3-yl-6H-pyrrolo[2,3-e][1,2,4]triazolo[4,3-a]pyridin-4-amine tris(trifluoroacetate) salt]: the IC50 is at most 1000 nM.

For `Cc1cc2c(cc(Nc3ncccn3)c3nnc(C)n32)n1Cc1ccccc1` [Example 201, 6-Benzyl-1,7-dimethyl-N-pyrimidin-2-yl-6H-pyrrolo[2,3-e][1,2,4]triazolo[4,3-a]pyridin-4-amine tris(trifluoroacetate) salt], the IC50 was at most 1000 nM.

In the case of `Cc1cc2c(cc(Nc3ccn(C)n3)c3nnc(C)n32)n1Cc1ccccc1` [Example 202, 6-Benzyl-1,7-dimethyl-N-(1-methyl-1H-pyrazol-3-yl)-6H-pyrrolo[2,3-e][1,2,4]triazolo[4,3-a]pyridin-4-amine tris(trifluoroacetate) salt], the half-maximal inhibitory concentration (IC50) was at most 1000 nM.

Consider `Cc1cc2c(cc(Nc3nc4ccccc4o3)c3nnc(C)n32)n1Cc1ccccc1` [Example 203, N-1,3-Benzoxazol-2-yl-6-benzyl-1,7-dimethyl-6H-pyrrolo[2,3-e][1,2,4]triazolo[4,3-a]pyridin-4-amine bis(trifluoroacetate) salt], for which the IC50 was at most 1000 nM.

Staying with this assay, now noted: KMS.12.BM human myeloma cells, 3 days, Cell Titer-GLO ATP quantitation; read-out: KMS cellular IC50.
With `Cc1nnc2ccc3c(cc(-c4cc[nH]n4)n3Cc3cccc(CN4CCC4)c3)n12` [Example 182, 6-[3-(Azetidin-1-ylmethyl)benzyl]-1-methyl-7-(1H-pyrazol-3-yl)-6H-pyrrolo[2,3-e][1,2,4]triazolo[4,3-a]pyridine tris(trifluoroaceate) salt], the half-maximal inhibitory concentration (IC50) was at most 1000 nM.
